According to patent publication US20230393140A1, “BINDING ASSAYS INVOLVING A PLURALITY OF SYNTHETIC COMPOUNDS, TARGETS, AND COUNTER TARGETS” (SRI International, priority 2020, published 2023):
Where two headings read alike, the source gives them in different places. Marks after values point to notes of the source that are not given here. Numbered stars: 1 amine (or outer) side, 2 acyl side, 3 side chain; on linkers, the order of the positions; unused ones are H or OH. Square brackets hold non-standard residues; d marks the D form. Peptide text beside a SMILES is read from it. * marks the point of attachment. 5FAM = O=C1OC2(c3ccc(O)cc3Oc3cc(O)ccc32)c2ccc(C(=O)*)cc21; NHCH2C6H4(4-CH2CONH2) = NC(=O)Cc1ccc(CN*)cc1; X1 = O=C(Cc1ccc(CN[*:1])cc1)[*:2]

Tests used:
[1] = biological target: T1, K-Ras (Homo sapiens, UniProt P01116, G12V); experiment: MST binding affinity of resynthesized NNP hits to K-Ras
T1 construct: purchased Cytoskeleton Inc. CS-RS04
Protocol: Loading was performed according to the following protocol: The 200 μM stock solution of the target protein was diluted to 10 μM in 20 mM HEPES pH 8.0, 150 mM NaCl, 10 mM MgCl2, 1 mM TCEP, 0.05% Tween-20 (total volume 110 μL). 10 μL were set aside for later labeling quality control. EDTA pH 8.0 (stock concentration 10 mM) was added to the protein solution to a final concentration of 80 μM. GTP (stock concentration 50 mM) was added to the protein solution to a final concentration of 750 μM. The solution was incubated at 30° C. for 2 hours (PCR tube) and then placed on ice for 2 minutes. MgCl2 was added to the protein solution to a final concentration of 100 mM. The resulting protein solution was buffer exchanged into the buffer required in the labeling kit for labeling. […] All the other target molecules (TNFα, IL-6, IL-6R and ASGPR) were used as received without any additional treatment.
(§1) Hit binding affinity to various targets were determined using Microscale Thermophoresis (MST). MST experiments were performed on a Monolith NT.115pico (NanoTemper Technologies GmbH, Munich, Germany). Measurements were performed at room temperature, in triplicate with incubation periods of 15, 30 and 45 minutes. […] Targets were labeled using Nanotemper Monolith 2nd Generation Protein Labeling Kits. RED-MALEIMIDE (Maleimide-647-dye) labeling kit was used for K-Ras and RED-NHS (NHS-647-dye) labeling kit was used for IL-6, IL-6R, TNFα and ASGPR. The buffer for the ASGPR contained 20 mM HEPES pH 7.4, 150 mM NaCl, 10 mM MgCl2, 2 mM CaCl2, 0.05% Pluronic F-127, and 1 mM DTT; for IL-6 contained 20 mM HEPES pH 7.4, 150 mM KCl, 10 mM MgCl2, and 0.1% Pluronic F-127; for the soluble IL-6 receptor 20 mM HEPES pH 7.4, 150 mM NaCl, 10 mM MgCl2, and 0.05% Tween-20; for K-Ras 20 mM HEPES pH 7.4, 150 mM NaCl, 10 mM MgCl2, 0.05% Tween-20 and 1 mM DTT; for TNFα 10 mM HEPES pH 7.4, 150 mM NaCl, 10 mM MgCl2, 0.05% Polysorbate-20. Triplicate data was analyzed using MO.AffinityAnalysis software (NanoTemper Technologies GmbH).

[2] = biological target: T2, cRaf/K-Ras (G12V) PPI (Homo sapiens, UniProt P01116, G12V); experiment: K-Ras-cRaf HTRF-based PPI profiling; type: biochemical; settings: for HillSlope: curve fit of % binding, K-Ras G12V 30 nM, GST-cRaf 10 nM; for blank corrected HTRF: raw data, compounds without fluorescein;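 for blank corrected HTRF: background is the signal of wells with all components except cRaf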
T2 construct: b-Kras G12V (GppNHp) (aa 2-169); biotin (b-
Protocol: In some experimental embodiments, a buffer was added to the assay wells which included […] HEPES pH 7.4, 150 mM NaCl, 5 mM MgCl2, 1 mM DTT, 0.005% NP40, and 1% DMSO. 5 uL of 3×K-Ras protein was then added to the assay wells, followed by the synthetic compounds which were added using acoustic technology (ECHO, Labcyte) followed by thirty minutes incubation at room temperature. Afterwards, 5 uL of 3×cRaf protein was added to the assay wells and 5 uL of detection mix was then added to the assay wells after 30 minutes. The detection mix included Mab anti-GST-Tb cryptate (Cisbio 61GSTTLB) and streptavidin-XL665 (Ex/Em=(337/665; 620) in PHERAstar (BMG Labtech)). HTRF signal was measured […] later.
The data includes raw data (signal-background without cRaf protein but with all other component), % binding (relative to DMSO controls), and curve fits. Curve fits were performed when the activities at the highest concentration of the synthetic compounds were less than 65%. Tables 18A-18B below includes the raw data (e.g., blank corrected HTRF) and Tables 19A-19B includes the % binding.

[3] = system: biotinylated GST; experiment: Interference check with biotinylated GST and detection mix
From the text: Table 20 below provides an interference check on the synthetic compounds using biotinylated GST, which was used with the detection mix to check for compound effect on fluorescence.

[4] = biological target: TNFα (Homo sapiens, UniProt P01375); experiment: MST binding affinity of resynthesized NNP hits to TNFα; design: purchased R&D Systems, Inc. 210-TA/CF; settings: read-out: KD (nM) [95% conf. int], NNP2 library hit, target TNFα, one-site binding model
Chain of TNFα (P01375 77-233 limits assumed): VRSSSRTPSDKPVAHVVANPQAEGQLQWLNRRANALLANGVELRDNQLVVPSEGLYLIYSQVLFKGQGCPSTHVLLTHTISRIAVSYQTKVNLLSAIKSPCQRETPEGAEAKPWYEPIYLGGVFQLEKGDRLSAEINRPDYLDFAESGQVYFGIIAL
Protocol: as §1

[5] = K-Ras, compound with fluorescein on N-term, read-out: KD[nM] in MST (with fluorescein on N-term)
[6] = read-out: KD (nM) [95% conf. int], MST, NNP1 library hit, target K-Ras, one-site binding model

| Structure (SMILES) | Kd [1, 5] [nM] | Kd [1, 6] [nM] | HillSlope [2] | blank corrected HTRF ([2]; conc. 1.00E−05) | blank corrected HTRF ([2]; conc. 1.11E−06) | blank corrected HTRF ([2]; conc. 3.33E−06) | blank corrected HTRF ([2]; conc. 3.70E−07) | blank corrected HTRF ([2]; conc. 4.12E−08) | % signal compared to DMSO ([3]; assay conc. 0.000508053 μM) [%] | % signal compared to DMSO ([3]; assay conc. 0.001524158 μM) [%] | % signal compared to DMSO ([3]; assay conc. 0.004572474 μM) [%] | % signal compared to DMSO ([3]; assay conc. 0.013717421 μM) [%] | % signal compared to DMSO ([3]; assay conc. 0.041152263 μM) [%] | % signal compared to DMSO ([3]; assay conc. 0.12345679 μM) [%] | % signal compared to DMSO ([3]; assay conc. 0.37037037 μM) [%] | % signal compared to DMSO ([3]; assay conc. 1.111111111 μM) [%] | % signal compared to DMSO ([3]; assay conc. 3.333333333 μM) [%] | further results |
| --- | --- | --- | --- | --- | --- | --- | --- | --- | --- | --- | --- | --- | --- | --- | --- | --- | --- | --- |
| CC(C)C[C@H](NC(=O)[C@@H](CCC(=O)O)NC(=O)[C@@H](CCCNC(=N)N)NC(=O)[C@@H](CO)NC(=O)[C@H](NC(=O)Cc1ccc(CNC(=O)[C@H](C)NC(=O)[C@@H](CO)NC(=O)CNC(=O)[C@@H](CO)NC(=O)[C@H]2CCCN2C(=O)Cc2ccc(CNC(=O)[C@H](Cc3ccccc3)NC(=O)[C@@H](CCC(=O)O)NC(=O)[C@@H](Cc3c[nH]cn3)NC(=O)[C@H]3CCCN3C(=O)[C@@H](CO)NC(=O)c3ccc4c(c3)C(=O)OC43c4ccc(O)cc4Oc4cc(O)ccc43)cc2)cc1)[C@H](C)O)C(=O)NCc1ccc(CC(=O)N2CCC[C@@H]2C(=O)N[C@H](CCCCN)C(=O)N[C@H](Cc2ccc(O)cc2)C(=O)N[C@H](CCCNC(=N)N)C(=O)N[C@@H](Cc2ccccc2)C(=O)NCc2ccc(CC(=O)N[C@H](CCCNC(=N)N)C(=O)N[C@H](Cc3ccc(O)cc3)C(=O)N[C@@H](C(=O)N[C@H](CCC(=O)O)C(=O)N[C@@H](C)C(=O)NCc3ccc(CC(=O)NCC(=O)N[C@H](Cc4c[nH]c5ccccc45)C(=O)N[C@H](Cc4c[nH]cn4)C(=O)N[C@H](CCCNC(=N)N)C(=O)N[C@@H](C)C(=O)NCc4ccc(CC(N)=O)cc4)cc3)[C@H](C)O)cc2)cc1 [KRAS-1-6] (5FAM-[dS][dP][dH][dE]F[X1][dP][dS]G[dS]A[X1][dT][dS][dR][dE]L[X1][dP][dK][dY][dR]F[X1][dR][dY][dT][dE]A[X1]G[dW][dH][dR]A-{NHCH2C6H4(4-CH2CONH2)}) | 21 | 21 | −0.8822 | 3880 | 9200 | 5253 | 11760 | 13672 | 103.1 | 102.7 | 102.4 | 102.5 | 102.9 | 100.3 | 100.7 | 89.85 | 74.45 | blank corrected HTRF ([2]; conc. 1.23E−07): 13441; blank corrected HTRF ([2]; conc. 1.52E−09): 13652; % signal compared to DMSO ([3]; assay conc. 19 μM): 62.03* % |
| CC(C)C[C@H](NC(=O)[C@@H](CCC(=O)O)NC(=O)[C@H]1CCCN1C(=O)[C@@H](Cc1ccccc1)NC(=O)[C@@H](CO)NC(=O)c1ccc2c(c1)C(=O)OC21c2ccc(O)cc2Oc2cc(O)ccc21)C(=O)NCc1ccc(CC(=O)NCC(=O)N[C@@H](C(=O)N2CCC[C@@H]2C(=O)N[C@H](CCCNC(=N)N)C(=O)N[C@@H](C)C(=O)NCc2ccc(CC(=O)N3CCC[C@@H]3C(=O)N[C@H](CO)C(=O)N[C@H](CCC(=O)O)C(=O)N[C@H](CCCNC(=N)N)C(=O)NCC(=O)NCc3ccc(CC(=O)N4CCC[C@@H]4C(=O)N[C@H](CCCCN)C(=O)N[C@H](Cc4ccc(O)cc4)C(=O)N[C@H](CCCNC(=N)N)C(=O)N[C@@H](Cc4ccccc4)C(=O)NCc4ccc(CC(=O)N[C@H](CCCNC(=N)N)C(=O)N[C@H](Cc5ccccc5)C(=O)N5CCC[C@@H]5C(=O)N[C@@H](C(=O)NCC(=O)NCc5ccc(CC(=O)NCC(=O)N[C@H](Cc6c[nH]c7ccccc67)C(=O)N[C@H](Cc6c[nH]cn6)C(=O)N[C@H](CCCNC(=N)N)C(=O)N[C@@H](C)C(=O)NCc6ccc(CC(N)=O)cc6)cc5)C(C)C)cc4)cc3)cc2)C(C)C)cc1 [KRAS-1-9] (5FAM-[dS][dF][dP][dE]L[X1]G[dV][dP][dR]A[X1][dP][dS][dE][dR]G[X1][dP][dK][dY][dR]F[X1][dR][dF][dP][dV]G[X1]G[dW][dH][dR]A-{NHCH2C6H4(4-CH2CONH2)}) | 32 | 32 | −0.9902 | 4707 | 7790 | 3269 | 12513 | 14333 | 99.72 | 102.8 | 100.2 | 101.4 | 102.8 | 101.5 | 99.8 | 92.41 | 69.59 | blank corrected HTRF ([2]; conc. 1.37E−08): 12329; blank corrected HTRF ([2]; conc. 4.57E−09): 13688; % signal compared to DMSO ([3]; assay conc. 10 μM): 53.69* % |
| CC(C)C[C@H](NC(=O)[C@@H](CCCCN)NC(=O)[C@@H](Cc1ccccc1)NC(=O)Cc1ccc(CNC(=O)[C@H](CC(C)C)NC(=O)[C@@H](CCCCN)NC(=O)[C@@H](CC(C)C)NC(=O)Cc2ccc(CNC(=O)[C@H](Cc3ccccc3)NC(=O)[C@@H](C)NC(=O)[C@@H](C)NC(=O)Cc3ccc(CNC(=O)[C@H](CC(C)C)NC(=O)[C@H](NC(=O)[C@@H](CCCCN)NC(=O)c4ccc5c(c4)C(=O)OC54c5ccc(O)cc5Oc5cc(O)ccc54)C(C)C)cc3)cc2)cc1)C(=O)NCc1ccc(CC(=O)N[C@H](Cc2c[nH]c3ccccc23)C(=O)N[C@H](CCCNC(=N)N)C(=O)N[C@H](C(=O)NCc2ccc(CC(=O)N[C@H](CO)C(=O)N[C@H](CO)C(=O)N[C@@H](Cc3ccccc3)C(=O)NCc3ccc(CC(=O)N[C@H](Cc4c[nH]cn4)C(=O)N[C@H](CCC(=O)O)C(=O)N[C@@H](CC(C)C)C(=O)NCc4ccc(CC(=O)N[C@H](Cc5ccccc5)C(=O)N[C@H](CCCCN)C(=O)N[C@@H](Cc5ccccc5)C(=O)NCc5ccc(CC(=O)N[C@@H](C(=O)N[C@H](CCC(=O)O)C(=O)N[C@@H](CC(C)C)C(=O)NCc6ccc(CC(N)=O)cc6)[C@H](C)O)cc5)cc4)cc3)cc2)C(C)C)cc1 [TNF-31-2] (5FAM-[dK][dV]L[X1][dA][dA]F[X1][dL][dK]L[X1][dF][dK]L[X1][dW][dR]V[X1][dS][dS]F[X1][dH][dE]L[X1][dF][dK]F[X1][dT][dE]L-{NHCH2C6H4(4-CH2CONH2)}) | – | – | – | – | – | – | – | – | – | – | – | – | – | – | – | – | – | Kd [4]: 23 nM |
